Values quoted from earlier work, collected in patent publication US5326898A, “Substituted phenylethenyl compounds having retinoid-like biological activity” (Allergan, Inc., priority 1992, dated 1994).

Test system: ornithine decarboxylase (ODC)
Conditions: qualitative; background statement on retinoic acid

Structure (SMILES): CC1=C(/C=C/C(C)=C/C=C/C(C)=C/C(=O)O)C(C)(C)CCC1 [Retinoic acid]
- inhibition of induction of ODC activity by TPA: inhibits
